{
  "source": "patent US12471620B2",
  "about": "“Use of isothiocyanate in smokeless tobacco products” (Gamot Global Pte. Ltd., priority 2019, dated 2025)",
  "test_system": "A549 cells",
  "experiment": "CellEvent Caspase 3/7 green detection assay of apoptosis, brightfield and fluorescent imaging",
  "format": "cell-based, human",
  "details": "for concentration at which exponentially more cells undergo apoptosis than at lower concentrations: at 48 hours (AITC, combinations) or earlier than at lower concentrations; for induction of cell death (apoptosis): daily treatment, imaged at 24 to 96 hours (combinations up to 72 hours)",
  "method": "A549 cells were plated into 48 well culture plates at a density of 3.0×10^4 cells/cm^2. Cells were dissociated with 0.05% trypsin EDTA following a 5-minute incubation at 37° C., neutralized in a 1:1 ratio of standard medium and counted using a hemocytometer prior to plating. All wells were settled overnight prior to addition of one of the following treatment compounds: AITC, PEITC, Thymoquinone, or Resveratrol. All treatments were performed within 24 hours following initial plating.\nTreatment of the A549 cells occurred at the following time points and concentrations: AITC—25 μM, 50 μM and 100 μM for 24, 48 and 96 hours. PEITC—25 μM, 50 μM, 100 μM and 200 μM for 24, 48 and 96 hours. TQ—25 μM, 50 μM, 10 0 μM and 200 μM for 24, 48 and 96 hours. Resveratrol—25 μM, 50 μM and 100 μM for 48 and 96 hours. DMSO was used to dissolve each compound, and cells treated with DMSO without any of tested compounds served as a control. Treated cells received daily treatments using the same concentrations until the last time point of the experiment.\nApoptosis was detected using the CellEvent Caspase 3/7 green detection kit/assay from Thermofisher Scientific. Cells were incubated with diluted assay reagent for 30 minutes at 37° C. prior to analysis, and imaged by a brightfield and a fluorescent microscopes.\nCellEvent Caspase-3/7 Green Detection Reagent is intrinsically non-fluorescent, as the four amino acid peptide (DEVD peptide) inhibits the ability of the dye to bind to DNA. However, following activation of caspase-3/7 in apoptotic cells, the DEVD peptide is cleaved, enabling the dye to bind to DNA and produce a bright, fluorogenic response. The fluorescent emission of the dye ˜530 can be observed under a fluorescent microscope.",
  "data": [
    {"molecule": "C=CCN=C=S", "note": "[AITC, Allyl Isothiocyanate]", "values": [
      {"measurement": "concentration at which exponentially more cells undergo apoptosis than at lower concentrations", "value": "≥ 50", "unit": "µM"},
      {"measurement": "induction of cell death (apoptosis)", "value": "induces cancer cell death"}
    ]},
    {"molecule": "Oc1ccc(C=Cc2cc(O)cc(O)c2)cc1", "note": "[Resveratrol]", "values": [
      {"measurement": "apoptotic effect at 25 μM relative to higher concentrations", "setting": "25 μM", "value": "reduced"},
      {"measurement": "concentration at which exponentially more cells undergo apoptosis than at lower concentrations", "value": "≥ 50", "unit": "µM"},
      {"measurement": "induction of cell death (apoptosis)", "value": "induces cell death"},
      {"measurement": "onset of apoptotic effects", "setting": "effects only observed at 48 and 96 hours", "value": "delayed relative to other compounds"}
    ]},
    {"molecule": "CC1=CC(=O)C(C(C)C)=CC1=O", "note": "[Thymoquinone]", "values": [
      {"measurement": "concentration at which exponentially more cells undergo apoptosis than at lower concentrations", "value": "≥ 100", "unit": "µM"},
      {"measurement": "induction of cell death (apoptosis)", "value": "induces cell death"}
    ]}
  ]
}
